Assay results taken from the supplement of paper PMC13380429.
± gives the standard deviation of the averaged measurements.

Legend:
Details in all cases: 72 h
Caco-2 [1] = test: cell viability relative to DMSO; higher = less toxic
Calu-3 [2] = test: as above
HepG2 [3] = test: as above
U2OS [4] = test: as above
Vero E6 [5] = test: as above
Caco-2 [6] = test: relative viability EC50 (midpoint between 100% and the lowest measured viability); higher = less toxic
Calu-3 [7] = test: as above
HepG2 [8] = test: as above
U2OS [9] = test: as above
Vero E6 [10] = test: as above
Caco-2 [11] = test: drug sensitivity score (DSS) for viability; higher = more toxic; extreme values may be limits of the assay
Calu-3 [12] = test: as above
HepG2 [13] = test: as above
U2OS [14] = test: as above
Vero E6 [15] = test: as above

| Structure (SMILES) | cell viability (Caco-2 [1]; 1 nM) | cell viability (Caco-2 [1]; 10 nM) | cell viability (Caco-2 [1]; 100 nM) | cell viability (Caco-2 [1]; 1000 nM) | cell viability (Caco-2 [1]; 10000 nM) | cell viability (Calu-3 [2]; 1 nM) | cell viability (Calu-3 [2]; 10 nM) | cell viability (Calu-3 [2]; 100 nM) | cell viability (Calu-3 [2]; 1000 nM) | cell viability (Calu-3 [2]; 10000 nM) | cell viability (HepG2 [3]; 1 nM) | cell viability (HepG2 [3]; 10 nM) | cell viability (HepG2 [3]; 100 nM) | cell viability (HepG2 [3]; 1000 nM) | cell viability (HepG2 [3]; 10000 nM) | cell viability (U2OS [4]; 1 nM) | cell viability (U2OS [4]; 10 nM) | cell viability (U2OS [4]; 100 nM) | cell viability (U2OS [4]; 1000 nM) | cell viability (U2OS [4]; 10000 nM) | cell viability (Vero E6 [5]; 1 nM) | cell viability (Vero E6 [5]; 10 nM) | cell viability (Vero E6 [5]; 100 nM) | cell viability (Vero E6 [5]; 1000 nM) | cell viability (Vero E6 [5]; 10000 nM) | relative viability EC50 (Caco-2 [6]) | relative viability EC50 (Calu-3 [7]) | relative viability EC50 (HepG2 [8]) | relative viability EC50 (U2OS [9]) | relative viability EC50 (Vero E6 [10]) | drug sensitivity score (Caco-2 [11]) | drug sensitivity score (Calu-3 [12]) | drug sensitivity score (HepG2 [13]) | drug sensitivity score (U2OS [14]) | drug sensitivity score (Vero E6 [15]) |
| --- | --- | --- | --- | --- | --- | --- | --- | --- | --- | --- | --- | --- | --- | --- | --- | --- | --- | --- | --- | --- | --- | --- | --- | --- | --- | --- | --- | --- | --- | --- | --- | --- | --- | --- | --- |
| CC(ONC(=O)c1cc(C(F)(F)F)cc(C(F)(F)F)c1)C(=O)Nc1ccc(Cl)cc1 (stereo not given) [CCG-1423] | 99.9% | 97.9% | 91.4% | 97.4% | 88.6% | 96.4% | 89.5% | 85% | 95.1% | 98.7% | 108% | 99.4% | 94.9% | 96.8% | 89.2% | 100% | 98.6% | 105% | 99.6% | 101% | 101% | 99.4% | 99% | 105% | 99.2% | > 10 µM | > 10 µM | > 10 µM | > 10 µM | > 10 µM | 0 | 0 | 0 | 0 | 0 |
| O=C(Nc1cccc2c(=O)cc(-c3nnn[nH]3)oc12)c1ccc(OCCCCc2ccccc2)cc1 [pranlukast] | 94.1% | 91.3% | 94.6% | 99.1% | 86.7% | 102% | 111% | 93.1% | 96.8% | 88.9% | 95.7% | 95.6% | 104% | 101% | 99.9% | 96.7% | 97.2% | 94.3% | 98.6% | 95.2% | 99.6% | 94.4% | 93.8% | 97.1% | 96% | > 10 µM | > 10 µM | > 10 µM | > 10 µM | > 10 µM | 0 | 0 | 0 | 0 | 0 |
| CCCCCCCCCCCCCCCCCCCCCC(=O)Nc1ccn([C@@H]2O[C@H](CO)[C@@H](O)[C@@H]2O)c(=O)n1 [enocitabine] | 78.8% | 67.8% | 90.5% | 114% | 92.3% | 99.2% | 99% | 104% | 94.9% | 95.7% | 98% | 102% | 100% | 112% | 79.2% | 94.1% | 95.2% | 95.4% | 93.6% | 102% | 95.6% | 97.2% | 91.9% | 94% | 107% | > 10 µM | > 10 µM | > 10 µM | > 10 µM | > 10 µM | 0 | 0 | 0.4 | 0 | 0 |
| CC(C)(O)c1ccn2c(-c3ccc(F)c(-c4ccc(F)cc4C#N)c3)cnc2c1F [TP-003] | 98.7% | 96% | 93.6% | 103% | 95.6% | 106% | 91.9% | 102% | 114% | 92.7% | 98.3% | 96.4% | 97.9% | 103% | 102% | 96.7% | 94.1% | 104% | 96.5% | 99.4% | 97.6% | 99.1% | 92.3% | 103% | 103% | > 10 µM | > 10 µM | > 10 µM | > 10 µM | > 10 µM | 0 | 0 | 0 | 0 | 0 |
| NC(=O)c1ccc(F)c2c1C[C@@H](N(C1CCC1)C1CCC1)CO2 [robalzotan] | 92.7% | 98.3% | 97.5% | 105% | 99.5% | 98.8% | 110% | 94.5% | 91.2% | 97.7% | 105% | 101% | 99.5% | 96.9% | 100% | 102% | 107% | 97.7% | 105% | 99.1% | 102% | 99.8% | 107% | 94.4% | 103% | > 10 µM | > 10 µM | > 10 µM | > 10 µM | > 10 µM | 0 | 0 | 0 | 0 | 0 |
| CCn1cnc(C(=O)NC)c1C(=O)NC [ethimizol] | 97.5% | 104% | 91.5% | 99.1% | 92.3% | 102% | 92.4% | 91.3% | 102% | 99.1% | 89.3% | 114% | 103% | 104% | 111% | 98.6% | 102% | 98.1% | 98.2% | 94.9% | 96.4% | 96.2% | 96.4% | 99.9% | 100% | > 10 µM | > 10 µM | > 10 µM | > 10 µM | > 10 µM | 0 | 0 | 0 | 0 | 0 |
| CCNC(=O)c1noc(-c2cc(C(C)C)c(O)cc2O)c1-c1ccc(CN2CCOCC2)cc1 [NVP-AUY922] | 100% | 77.1% | 30.3% | 28.2% | 31.4% | 84.2% | 83.9% | 46% | 37.3% | 29.6% | 103% | 27.5% | 1.2% | 0.8% | 1.2% | 93% | 57.9% | 3% | 3.5% | 1% | 104% | 106% | 47.1% | 26.6% | 25.6% | 0.0149 µM | 0.0281 µM | 0.0067 µM | 0.012 µM | 0.0702 µM | 25.1 | 20.5 | 38.6 | 34.8 | 19.8 |
| Cc1cc(=O)[nH]c(=S)[nH]1 [methylthiouracil] | 98.7% | 96.6% | 99.3% | 96.3% | 94.6% | 106% | 109% | 83.8% | 97.7% | 96.6% | 107% | 108% | 95.1% | 95.3% | 105% | 103% | 99% | 98.7% | 97.4% | 97.3% | 101% | 92.6% | 100% | 92.1% | 97.8% | > 10 µM | > 10 µM | > 10 µM | > 10 µM | > 10 µM | 0 | 0 | 0 | 0 | 0 |
| CN[C@@H]1[C@@H](O)[C@@H](O[C@@H]2[C@@H](O)[C@H](O[C@H]3OC(CN)=CC[C@H]3N)[C@@H](N)C[C@H]2N)OC[C@]1(C)O [Sisomicin (sulfate)] | 100 ± 6.2% | 100 ± 4.2% | 103 ± 2.8% | 100 ± 0.78% | 94.15 ± 0.49% | 105 ± 7.6% | 101.8 ± 0.35% | 97.1 ± 0.28% | 101 ± 4.5% | 105 ± 5.2% | 108 ± 8.4% | 101 ± 4.7% | 107 ± 7.3% | 96.8 ± 1.3% | 98.1 ± 4.1% | 101 ± 0.64% | 102 ± 0.49% | 99.7 ± 0.99% | 105 ± 3.1% | 99.4 ± 0.71% | 107 ± 8.3% | 107 ± 1.6% | 105 ± 4.5% | 98.5 ± 1.6% | 104 ± 2.9% | > 10 µM | > 10 µM | > 10 µM | > 10 µM | > 10 µM | 0 | 0 | 0 | 0 | 0 |
| Nc1c(CC(=O)O)cccc1C(=O)c1ccc(Br)cc1 [bromfenac] | 88.1% | 94.3% | 93.4% | 95.7% | 101% | 95.7% | 97% | 104% | 84.2% | 97.7% | 96.3% | 97.4% | 97.2% | 104% | 104% | 100% | 98.6% | 103% | 99.4% | 96% | 95.4% | 103% | 98.1% | 97.3% | 105% | > 10 µM | > 10 µM | > 10 µM | > 10 µM | > 10 µM | 0 | 0 | 0 | 0 | 0 |
